Values joined by “and” are separate entries in the source; they are usually repeats but may differ in a detail not shown here. Equal values may be shown once.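 Values below derive from 48-hour exposures of cells grown in 96-well plates, with endpoints linearly interpolated between the two concentrations bracketing the appropriate inhibition level. Here, GI50 denotes the concentration required for 50% inhibition of growth. TGI: concentration producing complete growth inhibition.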
Tests used:
Assay in all cases: inhibition of tumour cell growth, NCI panel, 48 h
DLD-1 colon = test system: DLD-1 colon
K-562 leukemia = test system: K-562 leukemia
LOX IMVI melanoma = test system: LOX IMVI melanoma
OVCAR-8 ovarian = test system: OVCAR-8 ovarian
SF-268 CNS = test system: SF-268 CNS
SF-539 CNS = test system: SF-539 CNS
SK-OV-3 ovarian = test system: SK-OV-3 ovarian
U251 CNS = test system: U251 CNS
UACC-257 melanoma = test system: UACC-257 melanoma
XF 498 CNS = test system: XF 498 CNS

Compound	TGI (DLD-1 colon)	TGI (K-562 leukemia)	TGI (LOX IMVI melanoma)	TGI (OVCAR-8 ovarian)	TGI (SF-268 CNS)	TGI (SF-539 CNS)	TGI (SK-OV-3 ovarian)	TGI (U251 CNS)	TGI (UACC-257 melanoma)	TGI (XF 498 CNS)	GI50 (DLD-1 colon)	GI50 (LOX IMVI melanoma)	GI50 (OVCAR-8 ovarian)	GI50 (SF-268 CNS)	GI50 (SF-539 CNS)	GI50 (SK-OV-3 ovarian)	GI50 (U251 CNS)	GI50 (XF 498 CNS)	GI50 (K-562 leukemia)	GI50 (UACC-257 melanoma)
O=C(COC(=O)c1cccc2c(=O)c3ccccc3[nH]c12)Nc1ccc(Cl)cc1	> 100 µM	> 100 µM	> 100 µM	> 100 µM	> 100 µM	> 100 µM	> 100 µM	> 100 µM	> 100 µM	97.3 µM										
CCOC(=O)/C(C#N)=C\Sc1ccccc1	45.5 µM	> 100 µM	21.4 µM	27.3 µM	28.9 µM	30.1 µM	74.7 µM	29 µM	> 100 µM	> 100 µM										
Cc1ccc(C)c(NC(=O)C(=O)C2C(=O)N(c3ccccc3)N=C2N)c1 (stereo not drawn)	> 100 µM	> 100 µM	> 100 µM	> 100 µM	> 100 µM	> 100 µM		> 100 µM	> 100 µM	> 100 µM										
O=C1C(Cl)=C(Cl)C(=O)N1c1ccc(F)cc1	41 µM	> 51.1 µM	32.6 µM	45.1 µM	> 77.3 µM	51.9 µM	> 69.2 µM	53.2 µM	> 100 µM	34.9 µM										
COc1cc(C2c3cc4c(cc3[C@@H](Nc3ccc([N+](=O)[O-])cc3)C3COC(=O)[C@H]23)OCO4)cc(OC)c1O (stereo partly drawn)	19.2 µM	39.4 µM	6.67 µM	11 µM	39.5 µM	3.79 µM	10.1 µM	7.69 µM	34.5 µM	15 µM	3.15 µM	367 nM	0.981 µM	0.914 µM	0.734 µM	0.798 µM	0.418 µM	0.613 µM		
C[C@]12CC(C=O)C(=O)C(O)=C1CC[C@@H]1C2CC[C@@]2(C)C1CC[C@]2(C)O (stereo partly drawn)	34.5 µM	> 100 µM	24.7 µM	89.9 µM	66.1 µM	35.1 µM	46.3 µM	44.9 µM	75.5 µM	33.4 µM										
Cc1cc(Cl)ccc1N=C1NC(=O)C(CC(=O)Nc2cccc(C)c2C)S1 (stereo not drawn)	> 100 µM	> 100 µM	80.6 µM	75.9 µM	> 100 µM	43.4 µM	55.9 µM	74.5 µM	> 100 µM	39 µM										
O=C1NC2(CCCCC2)C2CCCCC=C12 (stereo not drawn)	> 100 µM	> 100 µM	> 100 µM	> 100 µM	> 100 µM	> 100 µM	> 100 µM	> 100 µM	> 100 µM	> 100 µM										
COC(=O)c1ccc(C(=O)OC)c2nc3cc(Cl)ccc3nc12	> 100 µM	> 100 µM	> 100 µM	> 100 µM	> 100 µM	> 100 µM	> 100 µM	> 100 µM	> 100 µM	> 100 µM										
CCC[CH2][Sn]([CH2]CCC)([O]C(=O)c1cc(F)ccc1F)[O]C(=O)c1cc(F)ccc1F	2.16 µM	1.35 µM	1.85 µM	2.65 µM	2.37 µM	2.81 µM	5.64 µM	2.11 µM	2.49 µM	3.21 µM	0.915 µM	581 nM	1.34 µM	1.14 µM	1.4 µM	2.79 µM	0.888 µM	1.8 µM	0.294 µM	1.24 µM
N#CC(C(=N/O)/C(=N\O)C(C#N)c1ccccc1)c1ccccc1 (stereo not drawn)	> 100 µM	> 100 µM	> 100 µM	> 100 µM	> 100 µM	> 100 µM	> 100 µM	> 100 µM	> 100 µM	> 100 µM										
Nn1c(-c2cccc(Cl)c2)nc2ccccc2c1=O	> 100 µM	> 100 µM		> 100 µM	> 100 µM	> 100 µM	> 100 µM	> 100 µM	> 100 µM	> 100 µM										
COc1ccc(/C=C\c2cc(OC)c(OC)c(OC)c2)cc1OC(=O)CC(N)C(=O)O (stereo not drawn)	> 100 µM	> 100 µM			0.365 µM	0.00577 µM and 0.0374 µM		0.00855 µM and 0.0702 µM	> 100 µM	0.00792 µM		0.0639 nM	0.00195 µM	0.000945 µM	0.000427 µM		0.000352 µM		0.000493 µM	11.9 µM
C[C@]12Cc3conc3C(O)=C1CC[C@@H]1C2CC[C@@]2(C)C1CC[C@]2(C)O (stereo partly drawn)	57.5 µM	87.8 µM	22.7 µM	61.3 µM	> 100 µM	60.6 µM	57.4 µM	48.9 µM	80.4 µM	47.2 µM										
CN(C)C(=S)/N=c1\ssc(=S)n1Cc1ccco1	> 100 µM	> 55.7 µM	> 100 µM	> 100 µM	> 100 µM	7.66 µM	> 100 µM	> 47.4 µM	> 100 µM	60.1 µM										
CCCS(=O)c1nc(COC(=O)NC)c(COC(=O)NC)n1C (stereo not drawn)	> 100 µM	> 100 µM	> 100 µM	> 100 µM	> 100 µM	> 100 µM	> 100 µM	> 100 µM	> 100 µM	> 100 µM										
COC(=O)C(=O)C(C(C)=O)C(=O)NCc1ccccc1 (stereo not drawn)	> 100 µM	> 100 µM	> 100 µM	> 100 µM	> 100 µM	> 100 µM		> 100 µM	> 100 µM	> 100 µM										
COc1cc2c3cc1Oc1c(OC)c(OC)cc4c1[C@@H](Cc1ccc(O)c(c1)Oc1ccc(cc1)C[C@@H]3N(C)CC2)N(C)CC4	56.3 µM	33.5 µM	34.6 µM	31.7 µM	45.6 µM	13.1 µM		21.7 µM	10.9 µM	23.8 µM										
O=C1C(Cl)=C(Cl)C(=O)N1c1cccc(C(F)(F)F)c1	> 100 µM	> 100 µM	> 100 µM	> 100 µM	> 100 µM	> 100 µM	> 100 µM	> 100 µM	> 100 µM	> 100 µM										
CC(C)N1C(C)[C@@H](c2ccccc2)O[P@@]1(=O)CC1=CCCCC1 (stereo partly drawn)	> 100 µM	> 100 µM	> 100 µM	> 100 µM	> 100 µM	> 100 µM	> 100 µM	> 100 µM	> 100 µM	> 100 µM										
CCCCCN(CCCCC)C(=O)[C@H](CCC(=O)O)NC(=O)c1cc2ccccc2[nH]1	> 100 µM	> 100 µM	> 100 µM	> 100 µM	> 100 µM	> 100 µM	> 100 µM	> 100 µM	> 100 µM	> 100 µM										

— PubChem BioAssay (NCI)
